According to patent publication EP4417602A1, “SUBSTITUTED PYRAZOLE CARBOXAMIDES, SALTS THEREOF AND THEIR USE AS HERBICIDALLY ACTIVE SUBSTANCES” (Bayer AG, priority 2023, dated 2024):

Experiments:
POAAN [1] = experiment: A. Herbicidal pre-emergence action on harmful plants (Tables A); type: in vivo, Poa annua
How it was run: (§1)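 Greenhouse pre-emergence test: compound applied to the soil surface at 1280 g/ha or below, and herbicidal effect rated visually at ca. 3 weeks on a 0–100% scale against untreated plants.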

DIGSA = experiment: as above; type: in vivo, Digitaria sanguinalis
How it was run: as §1

POAAN [2] = experiment: B. Herbicidal post-emergence action on harmful plants (Tables B); type: in vivo, Poa annua
How it was run: (§2)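 Activity was scored visually as % damage (100% = dead, 0% = like untreated) about 3 weeks after treatment. Plants at the one-leaf stage, 2-3 weeks old, were sprayed with WP/EC formulations plus 0.5% additive (600 L/ha water, up to 1280 g/ha). Plants were grown in sandy loam in a greenhouse.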

ECHCG [3] = experiment: A. Herbicidal pre-emergence action on harmful plants (Tables A); type: in vivo, Echinochloa crus-galli; conditions: visual grading after ca. 3 weeks vs untreated controls, 100% = plants have died off, 0% = as control plants
How it was run: as §1

STEME [4] = experiment: as above; type: in vivo, Stellaria media; conditions: visual grading after ca. 3 weeks vs untreated controls, 100% = plants have died off, 0% = as control plants
How it was run: as §1

ABUTH = experiment: as above; type: in vivo, Abutilon theophrasti; conditions: application rate 1280 g/ha; visual grading after ca. 3 weeks vs untreated controls; 100% = plants have died off, 0% = as control plants
Text: (§3) Seeds of mono- and dicotyledonous weed plants were sown in plastic pots (double sowings with one species of mono- and one species of dicotyledonous weed plants per pot), in sandy loam, and covered with soil. The compounds according to the invention, formulated in the form of wettable powders (WP) or as emulsifiable concentrates (EC), were applied to the surface of the covering soil as aqueous suspension or emulsion, with the addition of 0.5% of an additive, at an application rate of 6001 of water per hectare (converted). Following treatment, the pots were placed in a greenhouse and kept under optimum growth conditions for the test plants. The visual grading of the damage to the test plants was carried out after ca. 3 weeks in comparison to untreated controls (herbicidal effect in percent (%): 100% effect = plants have died off, 0% effect = as control plants). Tables A1 to A12, below, show the effects of selected compounds of the general formula (I) according to table 1 on various harmful plants and an application rate corresponding to 1280 g/ha or below obtained by the experimental procedure mentioned above. Table A1: pre-emergence activity at 1280g/ha against ABUTH in %

AMARE [5] = experiment: as above; type: in vivo, Amaranthus retroflexus
How it was run: as §1

LOLRI = experiment: as above; type: in vivo, Lolium rigidum; conditions: visual grading after ca. 3 weeks vs untreated controls, 100% = plants have died off, 0% = as control plants
How it was run: as §1

STEME [6] = experiment: B. Herbicidal post-emergence action on harmful plants (Tables B); type: in vivo, Stellaria media; conditions: application rate 1280 g/ha; Table B6
How it was run: as §2

KCHSC [7] = experiment: as above; type: in vivo, Kochia scoparia; conditions: application rate 1280 g/ha; Table B10a
Procedure: (§4) Seeds of mono- and dicotyledonous weed plants were placed in plastic pots in sandy loam soil (doubly sown with in each case one species of mono- or dicotyledonous weed plants per pot), covered with soil and cultivated in a greenhouse under controlled growth conditions. 2 to 3 weeks after sowing, the test plants were treated at the one-leaf stage. The compounds of the invention, formulated in the form of wettable powders (WP) or as emulsion concentrates (EC), were applied onto the green parts of the plants as aqueous suspension or emulsion with addition of 0.5% additive at a water application rate of 600 liters per hectare (converted). After the test plants had been kept in the greenhouse under optimum growth conditions for about 3 weeks, the activity of the preparations was rated visually in comparison to untreated controls. For example, 100% activity = the plants have died, 0% activity = like control plants. Tables B1 to B12, below, show the effects of selected compounds of the general formula (I) according to table 1 on various harmful plants and an application rate corresponding to 1280 g/ha or below obtained by the experimental procedure mentioned above. Table B1a: post-emergence activity at 1280g/ha against ABUTH in %

SETVI [8] = experiment: as above; type: in vivo, Setaria viridis; conditions: application rate 1280 g/ha; Table B5
How it was run: as §2

MATIN = experiment: A. Herbicidal pre-emergence action on harmful plants (Tables A); type: in vivo, Matricaria inodora; conditions: visual grading after ca. 3 weeks vs untreated controls, 100% = plants have died off, 0% = as control plants
How it was run: as §1

AMARE [9] = experiment: B. Herbicidal post-emergence action on harmful plants (Tables B); type: in vivo, Amaranthus retroflexus; conditions: application rate 1280 g/ha; Table B8
Procedure: as §4

SETVI [10] = experiment: A. Herbicidal pre-emergence action on harmful plants (Tables A); type: in vivo, Setaria viridis; conditions: visual grading after ca. 3 weeks vs untreated controls, 100% = plants have died off, 0% = as control plants
How it was run: as §1

KCHSC [11] = experiment: as above; type: in vivo, Kochia scoparia; conditions: application rate 1280 g/ha; visual grading after ca. 3 weeks vs untreated controls; 100% = plants have died off, 0% = as control plants
Text: as §3

VERPE [12] = experiment: B. Herbicidal post-emergence action on harmful plants (Tables B); type: in vivo, Veronica persica; conditions: application rate 1280 g/ha; Table B11a
How it was run: as §2

ALOMY = experiment: A. Herbicidal pre-emergence action on harmful plants (Tables A); type: in vivo, Alopecurus myosuroides
How it was run: as §1

ECHCG [13] = experiment: B. Herbicidal post-emergence action on harmful plants (Tables B); type: in vivo, Echinochloa crus-galli; conditions: application rate 1280 g/ha; Table B2a
How it was run: as §2

VERPE [14] = experiment: A. Herbicidal pre-emergence action on harmful plants (Tables A); type: in vivo, Veronica persica; conditions: application rate 1280 g/ha; Table A11
Text: as §3

[15] = application rate 80 g/ha, Table A7c
[16] = application rate 320 g/ha, Table A7b
[17] = application rate 1280 g/ha, visual grading after ca. 3 weeks vs untreated controls, 100% = plants have died off, 0% = as control plants
[18] = application rate 80 g/ha, Table A12c
[19] = application rate 320 g/ha, Table A12b
[20] = application rate 1280 g/ha, Table A12a
[21] = application rate 1280 g/ha, Table B7a
[22] = application rate 320 g/ha, Table A8b

Compound: Cn1ncc(C(=O)N2CCCC2Cc2ccccc2F)c1COCC(F)(F)F (single isomer, unassigned) [Example I-122]
- pre-emergence activity against POAAN (POAAN [1]; [15]): 90%
- pre-emergence activity against POAAN (POAAN [1]; [16]): 100%
- pre-emergence activity against POAAN (POAAN [1]; [17]): 100%
- pre-emergence activity against DIGSA (DIGSA; [18]): 90%
- pre-emergence activity against DIGSA (DIGSA; [19]): 90%
- pre-emergence activity against DIGSA (DIGSA; [20]): 100%
- post-emergence activity against POAAN (POAAN [2]; [21]): 90%
- pre-emergence activity against ECHCG (ECHCG [3]; application rate 80 g/ha): 90%
- pre-emergence activity against ECHCG (ECHCG [3]; application rate 320 g/ha): 100%
- pre-emergence activity against ECHCG (ECHCG [3]; application rate 1280 g/ha): 100%
- pre-emergence activity against STEME (STEME [4]; application rate 320 g/ha): 90%
- pre-emergence activity against STEME (STEME [4]; application rate 1280 g/ha): 100%
- pre-emergence activity against ABUTH (ABUTH): 100%
- pre-emergence activity against AMARE (AMARE [5]; [17]): 100%
- pre-emergence activity against LOLRI (LOLRI; application rate 320 g/ha): 100%
- pre-emergence activity against LOLRI (LOLRI; application rate 1280 g/ha): 100%
- post-emergence activity against STEME (STEME [6]): 90%
- post-emergence activity against KCHSC (KCHSC [7]): 90%
- post-emergence activity against SETVI (SETVI [8]): 90%
- pre-emergence activity against MATIN (MATIN; application rate 1280 g/ha): 100%
- post-emergence activity against AMARE (AMARE [9]): 90%
- pre-emergence activity against SETVI (SETVI [10]; application rate 80 g/ha): 90%
- pre-emergence activity against SETVI (SETVI [10]; application rate 320 g/ha): 90%
- pre-emergence activity against SETVI (SETVI [10]; application rate 1280 g/ha): 100%

Compound: COCc1nn(Cc2ccccc2)cc1C(=O)N1CCCC1Cc1ccccc1F (racemic) [Example I-024]
- pre-emergence activity against POAAN (POAAN [1]; [15]): 90%
- pre-emergence activity against POAAN (POAAN [1]; [16]): 90%
- pre-emergence activity against POAAN (POAAN [1]; [17]): 100%
- pre-emergence activity against DIGSA (DIGSA; [19]): 90%
- pre-emergence activity against DIGSA (DIGSA; [20]): 90%
- pre-emergence activity against STEME (STEME [4]; application rate 320 g/ha): 90%
- pre-emergence activity against STEME (STEME [4]; application rate 1280 g/ha): 100%
- pre-emergence activity against AMARE (AMARE [5]; [22]): 90%
- pre-emergence activity against AMARE (AMARE [5]; [17]): 90%
- pre-emergence activity against KCHSC (KCHSC [11]): 90%
- post-emergence activity against VERPE (VERPE [12]): 90%
- pre-emergence activity against MATIN (MATIN; application rate 80 g/ha): 90%
- pre-emergence activity against MATIN (MATIN; application rate 320 g/ha): 90%
- pre-emergence activity against MATIN (MATIN; application rate 1280 g/ha): 90%
- pre-emergence activity against SETVI (SETVI [10]; application rate 80 g/ha): 90%
- pre-emergence activity against SETVI (SETVI [10]; application rate 320 g/ha): 90%
- pre-emergence activity against SETVI (SETVI [10]; application rate 1280 g/ha): 90%

Compound: COCc1nn(C)cc1C(=O)N1CCCC1Cc1cc(F)ccc1F (single isomer, unassigned) [Example I-071]
- pre-emergence activity against POAAN (POAAN [1]; [15]): 100%
- pre-emergence activity against POAAN (POAAN [1]; [16]): 100%
- pre-emergence activity against POAAN (POAAN [1]; [17]): 100%
- pre-emergence activity against ALOMY (ALOMY; application rate 320 g/ha, Table A9b): 90%
- pre-emergence activity against ALOMY (ALOMY; application rate 1280 g/ha, Table A9a): 90%
- post-emergence activity against ECHCG (ECHCG [13]): 90%
- pre-emergence activity against DIGSA (DIGSA; [18]): 90%
- pre-emergence activity against DIGSA (DIGSA; [19]): 100%
- pre-emergence activity against DIGSA (DIGSA; [20]): 100%
- post-emergence activity against POAAN (POAAN [2]; application rate 320 g/ha, Table B7b): 90%
- post-emergence activity against POAAN (POAAN [2]; [21]): 90%
- pre-emergence activity against ECHCG (ECHCG [3]; application rate 80 g/ha): 90%
- pre-emergence activity against ECHCG (ECHCG [3]; application rate 320 g/ha): 100%
- pre-emergence activity against ECHCG (ECHCG [3]; application rate 1280 g/ha): 100%
- pre-emergence activity against STEME (STEME [4]; application rate 320 g/ha): 90%
- pre-emergence activity against STEME (STEME [4]; application rate 1280 g/ha): 90%
- pre-emergence activity against ABUTH (ABUTH): 90%
- pre-emergence activity against AMARE (AMARE [5]; [22]): 90%
- pre-emergence activity against AMARE (AMARE [5]; [17]): 90%
- pre-emergence activity against LOLRI (LOLRI; application rate 80 g/ha): 90%
- pre-emergence activity against LOLRI (LOLRI; application rate 320 g/ha): 100%
- pre-emergence activity against LOLRI (LOLRI; application rate 1280 g/ha): 100%
- pre-emergence activity against MATIN (MATIN; application rate 320 g/ha): 90%
- pre-emergence activity against MATIN (MATIN; application rate 1280 g/ha): 90%
- pre-emergence activity against VERPE (VERPE [14]): 90%
- pre-emergence activity against SETVI (SETVI [10]; application rate 80 g/ha): 90%
- pre-emergence activity against SETVI (SETVI [10]; application rate 320 g/ha): 90%
- pre-emergence activity against SETVI (SETVI [10]; application rate 1280 g/ha): 90%
